Data on 32 molecules can be found in US9694016B2 (Novartis AG, priority 2013, dated 2017).

b-Raf (V600E), sequence (P15056 whole entry V600E): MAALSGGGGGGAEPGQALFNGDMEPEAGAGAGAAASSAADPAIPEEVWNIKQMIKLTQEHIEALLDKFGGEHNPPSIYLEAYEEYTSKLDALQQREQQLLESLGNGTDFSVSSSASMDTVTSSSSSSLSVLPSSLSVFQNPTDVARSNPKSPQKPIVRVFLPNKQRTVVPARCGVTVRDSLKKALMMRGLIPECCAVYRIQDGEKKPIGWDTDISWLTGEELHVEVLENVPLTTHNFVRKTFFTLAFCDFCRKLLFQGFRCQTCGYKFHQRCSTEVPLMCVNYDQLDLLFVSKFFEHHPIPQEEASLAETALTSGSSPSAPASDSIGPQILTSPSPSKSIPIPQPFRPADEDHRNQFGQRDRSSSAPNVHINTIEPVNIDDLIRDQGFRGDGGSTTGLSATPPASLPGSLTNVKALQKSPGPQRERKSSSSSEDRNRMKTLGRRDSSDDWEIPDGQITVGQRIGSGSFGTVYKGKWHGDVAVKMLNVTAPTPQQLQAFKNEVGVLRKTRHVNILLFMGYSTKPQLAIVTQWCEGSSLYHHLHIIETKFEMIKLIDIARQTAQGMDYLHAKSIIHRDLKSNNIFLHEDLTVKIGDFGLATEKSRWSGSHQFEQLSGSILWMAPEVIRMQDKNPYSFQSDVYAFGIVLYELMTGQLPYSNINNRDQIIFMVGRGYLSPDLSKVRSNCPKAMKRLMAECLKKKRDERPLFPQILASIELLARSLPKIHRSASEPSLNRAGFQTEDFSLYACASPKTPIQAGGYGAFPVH

The test addresses b-Raf (V600E) (Homo sapiens (Human), UniProt P15056, V600E). Conditions: read-out: b-Raf IC-50; AlphaScreen, 60 min pre-incubation, 3 hours reaction.
Consider `Cc1ncc(C(=O)Nc2cccc(C(C)(C)O)c2)cc1-c1cc(N2CCOCC2)c(=O)n(C)c1` [Example 446, N-(3-(2-hydroxypropan-2-yl)phenyl)-1′,2-dimethyl-5′-morpholino-6′-oxo-1′,6′-dihydro-[3,3′-bipyridine]-5-carboxamide], for which the IC50 amounted to 100 nM. With `Cc1ccc(NC(=O)c2cccc(C(F)(F)F)c2)cc1-c1cc(N2CCOCC2=O)c(=O)n(C)c1` [Example 451, N-(4-methyl-3-(1-methyl-6-oxo-5-(3-oxomorpholino)-1,6-dihydropyridin-3-yl)phenyl)-3-(trifluoromethyl)benzamide], the IC50 stood at 83.7 nM.

For `CCN(C)c1cc(C(=O)Nc2ccc(C)c(-c3cc(N4CCOCC4)c(=O)n(C)c3)c2)ccn1` [Example 453, 2-(ethyl(methyl)amino)-N-(4-methyl-3-(1-methyl-5-morpholino-6-oxo-1,6-dihydropyridin-3-yl)phenyl)isonicotinamide], the IC50 came to 4.3 nM. Regarding `Cc1ccc(NC(=O)c2ccnc(N3CCC3)c2)cc1-c1cc(N2CCOCC2)c(=O)n(C)c1` [Example 454, 2-(azetidin-1-yl)-N-(4-methyl-3-(1-methyl-5-morpholino-6-oxo-1,6-dihydropyridin-3-yl)phenyl)isonicotinamide], the IC50 was determined as 1.9 nM. The value for `COCCN(C)c1cc(C(=O)Nc2ccc(C)c(-c3cc(N4CCOCC4)c(=O)n(C)c3)c2)ccn1` [Example 455, 2-((2-methoxyethyl)(methyl)amino)-N-(4-methyl-3-(1-methyl-5-morpholino-6-oxo-1,6-dihydropyridin-3-yl)phenyl)isonicotinamide] was 2.8 nM. The value for `Cc1ccc(NC(=O)c2ccnc(N(C)CCO)c2)cc1-c1cc(N2CCOCC2)c(=O)n(C)c1` [Example 456] was 3.3 nM; that for `CNCCN(C)c1cc(C(=O)Nc2ccc(C)c(-c3cc(N4CCOCC4)c(=O)n(C)c3)c2)ccn1` [Example 457, 2-(methyl(2-(methylamino)ethyl)amino)-N-(4-methyl-3-(1-methyl-5-morpholino-6-oxo-1,6-dihydropyridin-3-yl)phenyl)isonicotinamide] was 30.5 nM; that for `Cc1ccc(NC(=O)c2ccc(C(O)CO)c(C(F)(F)F)c2)cc1-c1cc(N2CCOCC2)c(=O)n(C)c1` (centres unmarked) [Example 460, 4-(1,2-dihydroxyethyl)-N-(4-methyl-3-(1-methyl-5-morpholino-6-oxo-1,6-dihydropyridin-3-yl)phenyl)-3-(trifluoromethyl)benzamide] was 15.9 nM.

As to `Cc1ccc(NC(=O)c2cccc(C(F)(F)F)c2)cc1-c1cc(N2CC3CC(C2)O3)c(=O)n(C)c1` [Example 464, N-(3-(5-(6-oxa-3-azabicyclo[3.1.1]heptan-3-yl)-1-methyl-6-oxo-1,6-dihydropyridin-3-yl)-4-methylphenyl)-3-(trifluoromethyl)benzamide], the IC50 is 16.8 nM.

On to `Cc1ccc(NC(=O)c2ccnc(C(C)(C)C#N)c2)cc1-c1cc(N2CC3CC(C2)O3)c(=O)n(C)c1` [Example 465, N-(3-(5-(6-oxa-3-azabicyclo[3.1.1]heptan-3-yl)-1-methyl-6-oxo-1,6-dihydropyridin-3-yl)-4-methylphenyl)-2-(2-cyanopropan-2-yl)isonicotinamide], for which the IC50 amounted to 100 nM. Consider `Cc1ccc(NC(=O)c2cc(CN)cc(C(F)(F)F)c2)cc1-c1cc(N2CCOCC2)c(=O)n(C)c1` [Example 470, 3-(aminomethyl)-N-(4-methyl-3-(1-methyl-5-morpholino-6-oxo-1,6-dihydropyridin-3-yl)phenyl)-5-(trifluoromethyl)benzamide], for which the IC50 is 4.5 nM. On to `Cc1ccc(NC(=O)c2ccnc(C(C)(C)C)c2)cc1-c1cc(N2CCOCC2)n(C)c(=O)c1` [Example 472, 2-(tert-butyl)-N-(4-methyl-3-(1-methyl-6-morpholino-2-oxo-1,2-dihydropyridin-4-yl)phenyl)isonicotinamide], for which the IC50 was 2.1 nM. For `Cc1ccc(NC(=O)c2ccccc2)cc1-c1cc(N2CCOCC2)n(C)c(=O)c1` [Example 473, N-(4-methyl-3-(1-methyl-6-morpholino-2-oxo-1,2-dihydropyridin-4-yl)phenyl)benzamide], the IC50 was 12.1 nM. For `Cc1ccc(NC(=O)c2ccnc(S(C)(=O)=O)c2)cc1-c1cc(N2CCOCC2)n(C)c(=O)c1` [Example 474, N-(4-methyl-3-(1-methyl-6-morpholino-2-oxo-1,2-dihydropyridin-4-yl)phenyl)-2-(methylsulfonyl)isonicotinamide], the IC50 is 2.2 nM. The value for `CCC(F)(F)c1cc(C(=O)Nc2ccc(C)c(-c3cc(N4CCOCC4)n(C)c(=O)c3)c2)ccn1` [Example 475, 2-(1,1-difluoropropyl)-N-(4-methyl-3-(1-methyl-6-morpholino-2-oxo-1,2-dihydropyridin-4-yl)phenyl)isonicotinamide] was 0.8 nM. In the case of `CCc1cc(C(=O)Nc2ccc(C)c(-c3cc(N4CCOCC4)n(C)c(=O)c3)c2)ccn1` [Example 476, 2-ethyl-N-(4-methyl-3-(1-methyl-6-morpholino-2-oxo-1,2-dihydropyridin-4-yl)phenyl)isonicotinamide], the IC50 was determined as 0.6 nM. Turning to `Cc1ccc(NC(=O)c2ccnc(C3CC3)c2)cc1-c1cc(N2CCOCC2)n(C)c(=O)c1` [Example 477, 2-cyclopropyl-N-(4-methyl-3-(1-methyl-6-morpholino-2-oxo-1,2-dihydropyridin-4-yl)phenyl)isonicotinamide], the IC50 was 0.4 nM. The value for `Cc1ccc(NC(=O)c2ccnc(C3COC3)c2)cc1-c1cc(N2CCOCC2)n(C)c(=O)c1` [Example 478, N-(4-methyl-3-(1-methyl-6-morpholino-2-oxo-1,2-dihydropyridin-4-yl)phenyl)-2-(oxetan-3-yl)isonicotinamide] was 2.5 nM; that for `Cc1ccc(NC(=O)c2ccnc(C(C)(C)F)c2)cc1-c1cc(N2CCOCC2)n(C)c(=O)c1` [Example 479, 2-(2-fluoropropan-2-yl)-N-(4-methyl-3-(1-methyl-6-morpholino-2-oxo-1,2-dihydropyridin-4-yl)phenyl)isonicotinamide] was 1.8 nM. The value for `Cc1ccc(NC(=O)c2ccnc(C3(C#N)CC3)c2)cc1-c1cc(N2CCOCC2)n(C)c(=O)c1` [Example 480, 2-(1-cyanocyclopropyl)-N-(4-methyl-3-(1-methyl-6-morpholino-2-oxo-1,2-dihydropyridin-4-yl)phenyl)isonicotinamide] was 0.6 nM; that for `CCn1cc(C(=O)Nc2ccc(C)c(-c3cc(N4CCOCC4)n(C)c(=O)c3)c2)cc(C(F)(F)F)c1=O` [Example 481, 1-ethyl-N-(4-methyl-3-(1-methyl-6-morpholino-2-oxo-1,2-dihydropyridin-4-yl)phenyl)-6-oxo-5-(trifluoromethyl)-1,6-dihydropyridine-3-carboxamide] was 1.2 nM. The result for `Cc1ccc(NC(=O)c2ccnc(C(C)C)c2)cc1-c1cc(N2CCOCC2)n(C)c(=O)c1` [Example 482, 2-isopropyl-N-(4-methyl-3-(1-methyl-6-morpholino-2-oxo-1,2-dihydropyridin-4-yl)phenyl)isonicotinamide] reads 0.6 nM; that for `Cc1ccc(NC(=O)c2ccnc(C(C)(C)O)c2)cc1-c1cc(N2CCOCC2)n(C)c(=O)c1` [Example 483, 2-(2-hydroxypropan-2-yl)-N-(4-methyl-3-(1-methyl-6-morpholino-2-oxo-1,2-dihydropyridin-4-yl)phenyl)isonicotinamide], 3.5 nM; that for `Cc1ccc(NC(=O)c2cccc(C(F)F)c2)cc1-c1cc(N2CCOCC2)n(C)c(=O)c1` [Example 484, 3-(difluoromethyl)-N-(4-methyl-3-(1-methyl-6-morpholino-2-oxo-1,2-dihydropyridin-4-yl)phenyl)benzamide], 0.4 nM. As for `Cc1ccc(NC(=O)c2ccnc(C(F)(F)F)c2)cc1-c1cc(N2CCOCC2)n(C)c(=O)c1` [Example 485, N-(4-methyl-3-(1-methyl-6-morpholino-2-oxo-1,2-dihydropyridin-4-yl)phenyl)-2-(trifluoromethyl)isonicotinamide], the IC50 stood at 1.1 nM. `Cc1ccc(NC(=O)c2ccnc(C(F)F)c2)cc1-c1cc(N2CCOCC2)n(C)c(=O)c1` [Example 486, 2-(difluoromethyl)-N-(4-methyl-3-(1-methyl-6-morpholino-2-oxo-1,2-dihydropyridin-4-yl)phenyl)isonicotinamide]: the IC50 came to 1.1 nM. Consider `Cc1ccc(NC(=O)c2ccnc(C(C)(C)C#N)c2)cc1-c1cc(N2CCOCC2)n(C)c(=O)c1` [Example 487, 2-(2-cyanopropan-2-yl)-N-(4-methyl-3-(1-methyl-6-morpholino-2-oxo-1,2-dihydropyridin-4-yl)phenyl)isonicotinamide], for which the IC50 came out at 2.8 nM. For the molecule `Cc1ccc(NC(=O)c2cccc(S(C)(=O)=O)c2)cc1-c1cc(N2CCOCC2)n(C)c(=O)c1` [Example 488, N-(4-methyl-3-(1-methyl-6-morpholino-2-oxo-1,2-dihydropyridin-4-yl)phenyl)-3-(methylsulfonyl)benzamide], the IC50 was found to be 1.9 nM.

For `Cc1ccc(NC(=O)c2cnnc(C(C)(C)C#N)c2)cc1-c1cc(N2CCOCC2)n(C)c(=O)c1` [Example 489, 6-(2-cyanopropan-2-yl)-N-(4-methyl-3-(1-methyl-6-morpholino-2-oxo-1,2-dihydropyridin-4-yl)phenyl)pyridazine-4-carboxamide], the IC50 worked out at 2.4 nM. The value for `CCN1CCN(c2cc(C(=O)Nc3ccc(C)c(-c4cc(N5CCOCC5)n(C)c(=O)c4)c3)cc(C(F)(F)F)c2)CC1` [Example 490, 3-(4-ethylpiperazin-1-yl)-N-(4-methyl-3-(1-methyl-6-morpholino-2-oxo-1,2-dihydropyridin-4-yl)phenyl)-5-(trifluoromethyl)benzamide] was 2.5 nM.

Take `Cc1ccc(NC(=O)c2cc(F)cc(N3CCOCC3)c2)cc1-c1cc(N2CCOCC2)n(C)c(=O)c1` [Example 491, 3-fluoro-N-(4-methyl-3-(1-methyl-6-morpholino-2-oxo-1,2-dihydropyridin-4-yl)phenyl)-5-morpholinobenzamide]: the IC50 was found to be 2.1 nM. For `Cc1ccc(NC(=O)c2cccc(C3COC3)c2)cc1-c1cc(N2CCOCC2)n(C)c(=O)c1` [Example 492, N-(4-methyl-3-(1-methyl-6-morpholino-2-oxo-1,2-dihydropyridin-4-yl)phenyl)-3-(oxetan-3-yl)benzamide], the IC50 was 3 nM.
